These results are taken from US20240294572A1, “Antimicrobial Peptides” (priority 2021, published 2024).

In data set [1] the test system is S. aureus USA200. In kind it is cell-based. As for the experimental part: (§1) The antibacterial activity of peptides was evaluated using a standard broth microdilution protocol (Clinical Laboratories Standards Institute (CLSI): M07-A10. Methods for Dilution Antimicrobial Susceptibility Tests for Bacteria that grow aerobically; Approved Standard, Tenth Edition, 2015) with minor modifications as described (Mishra, et al. (2019) Proc. Natl. Acad. Sci., 116:13517-13522). In brief, peptides (10 μL per well) with 2-fold dilutions were made in 96-well polystyrene microplates. Subsequently, the logarithmic phase bacterial cultures (i.e., optical density at 600 nm ˜0.5) were diluted to 0.001 OD and aliquoted to 90 μL per well. The plates were incubated overnight at 37°° C. Bacterial controls were treated with water, and the wells containing only the TSB media were used as blank. Positive controls included the parent peptide LL-37 as well as KR12. Post incubation, the plates were read at 630 nm using ChroMate® 4300 Microplate Reader (Awareness Technology, FL).

Data set [2] has as its system S. aureus Newman. In kind it is cell-based. On the procedure:
as §1

Data set [3] relates to S. aureus USA400. In kind it is cell-based. On the procedure: as §1
In data set [4] the test system is S. aureus Mu50. In kind it is cell-based. As for the experimental part: as §1
Data set [5] has as its system clinical strains of S. aureus, including USA200, USA400, Newman, and Mu50. The class given is cell-based. As for the experimental part:
as §1

Data set [6] concerns Klebsiella pneumonia ATCC 13883. Put plainly: Antibacterial broth microdilution MIC. In kind it is cell-based. On the procedure:
as §1

Data set [7] has as its system HaCaT cells. The class given is cell-based, human. As for the experimental part: Peptides were assessed for potential cytotoxicity using HaCaT cells (Addexbio Technologies, CA). Briefly, cells were seeded at a density of 1×10^4 per well in a tissue culture 96-well plate. DMEM was supplemented with 10% fetal bovine serum (FBS) and incubated at 37° C. in a 5% CO2 atmosphere for 24 hours. Culture medium was aspirated and replaced with fresh serum free media. Cells were exposed to different concentrations of peptides for 1 hour at 37° C. in a 5% CO2 atmosphere. Post-incubation, the cells were washed and incubated with 100 μL of DMEM media containing 20 μL of MTS reagent for 2 hours at 37° C. Absorbance was read at 492 nm using a ChroMate® microplate reader (Awareness Technology, FL).

Data set [8] has as its system S. aureus USA300 LAC. The class given is cell-based. On the procedure: as §1
To study the influence of medium conditions on the antimicrobial activity of peptides against S. aureus USA300, different pH, sodium chloride (NaCl), human sera were included into the antibacterial assays. Control experiments in TSB without any additions (pH 7.4) were set up in the same manner. In addition, antimicrobial activities of human LL-37, KR12, and C10-KR8d were compared in 10%, 50%, and 100% TSB as well as in TSB and MHB using E. coli ATCC 25922 and S. aureus USA300 LAC.

Data set [9] deals with human red blood cells (hRBCs). In kind it is cell-based. Conditions: red cells of human, 1 h. On the procedure:
Hemolytic assays of peptides were performed as described (Lakshmaiah, et al. (2020) Proc. Natl. Acad. Sci., 117:19446-19454). Briefly, human red blood cells (hRBCs) were obtained from UNMC Blood Bank. The cells were washed 3× with isotonic saline (0.9% NaCl) and diluted to 2% (v/v). Peptides at various concentrations were added to the 2% blood cells and incubated at 37° C. for 1 hour. Post-incubation, the plates were spun at 2000 rpm for 10 minutes; aliquots of the supernatant were carefully transferred to a fresh 96-well microplate. The amount of cells lysed is proportional to the hemoglobin released and was measured at 545 nm using a ChroMate® microplate reader (Awareness Technology, FL). The percent lysis was calculated by assuming 100% release when human blood cells were treated with 1% Triton™ X-100, and 0% release when incubated with PBS. The peptide concentration that caused 50% lysis of hRBCs is defined as HC50. The cell selectivity index (CSI) was calculated as the ratio between HC50 and the MIC of the corresponding peptide against MRSA.

Data set [10] deals with S. aureus USA300. The data set can be described thus: Bacterial membrane depolarization (DiBAC4(3)). In kind it is cell-based. Conditions: 3.1, 6.25, 12.5, and 25 μM; 40 minutes. On the procedure: The experiment was conducted as described (Marks, et al. (2013) PLOS One 8:e63158). In brief, an overnight culture of S. aureus USA300 was subcultured in a fresh TSB medium and grown to the exponential phase. Cells were spun using centrifugation, washed 2× with PBS, resuspended in twice the volume of PBS containing 25 mM glucose, and incubated at 37° C. for 15 minute. For membrane depolarization measurements, 500 nM (final concentration) of the dye DiBAC4 (3) bis(1,3-dibutylbarbituric acid) trimethine oxonol (ANASPEC, CA) was added, and the reaction mixture was vortexed gently. Aliquots of 90 μL of the energized bacteria solution were loaded to the wells, and the plate was fed into a FLUOstar® Omega microplate reader. Fluorescence was read for 20 minutes at excitation and emission wavelengths of 485 and 520 nm, respectively, to get dye normalization. Then, 10 μL of the peptide solution was added and gently mixed. Fluorescence readings were recorded for 40 minutes, where Triton™ X-100 (0.1%) was used as a positive control.

For data set [11], the system named is S. aureus USA300 LAC. Put plainly: Bacterial resistance development, multiple passage experiment. The class given is cell-based. Particulars: 14 passages/days at sub-MIC. As for the experimental part:
This experiment was performed similar to the MIC determination with a few modifications as described (Mishra, et al. (2019) Proc. Natl. Acad. Sci., 116:13517-13522). In short, an exponential phase S. aureus USA300 culture (i.e., optical density at 600 nm≈0.5) was diluted and partitioned into a 96-well polystyrene microplate with ˜10^5 bacteria per well (90 μL aliquots). After treatment with 10 μL of peptide or nafcillin solutions at various concentrations, microplates were incubated at 37° C. overnight and read on a ChroMate® 4300 Microplate Reader at 630 nm (Awareness Technology, FL). Of the wells with sub-MIC levels of the peptides that retained growth, approximately half of the control wells were again reinoculated in fresh TSB with sub-MIC concertation of peptides or antibiotics to attain exponential phase for MIC determination. Up to 15 serial passages of the bacteria cultures were conducted. The increase in the fold change (MIC on given passage/MIC recorded in first day of passage) was used to determine the degree of drug resistance.

In brackets after ≈: the same amount, converted by molar mass. Residues, ends and D or L forms follow the SMILES beside them. *: point of attachment. Octanoyl = CCCCCCCC(=O)*

Consider `CCCCCCCC(=O)N[C@@H](CCCCN)C(=O)N[C@@H](CCCNC(=N)N)C(=O)N[C@H](C(=O)N[C@@H](Cc1c[nH]c2ccccc12)C(=O)N[C@@H](CCC(N)=O)C(=O)N[C@@H](CCCNC(=N)N)C(=O)N[C@H](C(=O)N[C@@H](CCCCN)C(=O)N[C@@H](CC(=O)O)C(=O)N[C@@H](Cc1ccccc1)C(N)=O)[C@@H](C)CC)[C@@H](C)CC` [Peptide C8-KR10] (Octanoyl-KRIWQRIKDF-NH2), for which the “Minimal inhibitory concentration, USA200” value in data set [1] was 6.2 µM (≈ 9.39 µg/mL). In data set [2], the “Minimal inhibitory concentration, Newman” value was 6.2 µM (≈ 9.39 µg/mL). In [3], the “Minimal inhibitory concentration, USA400” value came to 3.1 µM (≈ 4.7 µg/mL). Also, in data set [4], the “Minimal inhibitory concentration, Mu50” value turned out to be 6.2 µM (≈ 9.39 µg/mL). Moreover, the “MIC against clinical strains of S. aureus” value in data set [5] was 1.6 to 6.2 µM. In data set [6], the “MIC (μM) KP” value came to 25 µM (≈ 37.9 µg/mL). For the same compound, in [7], the “relative toxicity to HaCaT cells” value is on record as “slightly less toxic than C8-KR10d”. Moreover, the “MIC (μM) SA” value in [8] (USA300) was in the range of 3.1 to 6.2 µM. Besides, the “Minimal inhibitory concentration (MIC), pH = 6.8” value in data set [8] (USA300, pH 6.8) turned out to be 12.5 μM. The “HC50” value in [9] amounted to 250 µM.
Turning to `CCCCCCCCCC(=O)N[C@@H](Cc1c[nH]c2ccccc12)C(=O)N[C@H](CC(N)=O)C(=O)N[C@@H](CC(=O)O)C(=O)N[C@@H]1C(=O)NCC(=O)N[C@@H](CCCN)C(=O)N[C@@H](CC(=O)O)C(=O)N[C@H](C)C(=O)N[C@@H](CC(=O)O)C(=O)NCC(=O)N[C@H](CO)C(=O)N[C@@H]([C@H](C)CC(=O)O)C(=O)N[C@@H](CC(=O)c2ccccc2N)C(=O)O[C@@H]1C` [daptomycin, reference compound], the “membrane depolarization ability (order)” value in [10] is reported as “Triton™ X-100>17BIPHE2>C10-KR8d>daptomycin”.
For the compound `CCOc1ccc2ccccc2c1C(=O)N[C@@H]1C(=O)N2[C@@H]1SC(C)(C)[C@@H]2C(=O)O` [nafcillin, reference compound], the “MIC increase in multiple passage experiment” value in data set [11] is “over 30 fold”.

A word on the HC50: it is the concentration giving 50% haemolysis. A low value points to more damage to red cells.
